{
  "source": "BindingDB's records for doi:10.7270/Q2M9073J",
  "about": "(Burnham Center For Chemical Genomics, 2010)",
  "target": "T1, Tyrosine-protein phosphatase non-receptor type 22 (Homo sapiens, UniProt Q9Y2R2)",
  "T1 sequence (Q9Y2R2 whole entry)": "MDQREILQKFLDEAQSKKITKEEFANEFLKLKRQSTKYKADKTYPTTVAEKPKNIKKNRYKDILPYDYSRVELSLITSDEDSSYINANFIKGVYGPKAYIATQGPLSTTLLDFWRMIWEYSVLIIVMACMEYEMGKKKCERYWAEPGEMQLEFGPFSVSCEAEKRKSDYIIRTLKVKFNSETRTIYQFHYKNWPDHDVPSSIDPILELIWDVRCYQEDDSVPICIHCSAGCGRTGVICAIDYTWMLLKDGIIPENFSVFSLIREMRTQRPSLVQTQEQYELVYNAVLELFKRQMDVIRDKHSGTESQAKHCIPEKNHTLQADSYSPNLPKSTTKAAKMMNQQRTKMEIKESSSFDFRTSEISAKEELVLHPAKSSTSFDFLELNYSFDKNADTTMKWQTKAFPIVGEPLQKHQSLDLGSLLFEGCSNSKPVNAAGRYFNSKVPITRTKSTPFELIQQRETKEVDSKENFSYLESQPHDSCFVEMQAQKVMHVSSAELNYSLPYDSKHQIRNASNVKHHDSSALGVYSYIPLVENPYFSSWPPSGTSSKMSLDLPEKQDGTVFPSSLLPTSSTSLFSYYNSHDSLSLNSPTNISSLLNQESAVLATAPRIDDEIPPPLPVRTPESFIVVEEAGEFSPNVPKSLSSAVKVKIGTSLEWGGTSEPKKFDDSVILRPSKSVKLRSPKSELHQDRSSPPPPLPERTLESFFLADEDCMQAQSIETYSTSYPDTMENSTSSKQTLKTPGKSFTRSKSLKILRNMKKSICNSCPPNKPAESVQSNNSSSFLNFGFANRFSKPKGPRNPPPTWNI",
  "experiment": "inhibition of lymphoid tyrosine phosphatase LYP – biochemical, pCAP fluorogenic substrate, fluorescence, set 3, SAR follow-up (AID 449727)",
  "data": [
    {"smiles": "CCOc1ccc2nc(NC(=O)CSc3cc(O)c4c(C)c(C)sc4n3)sc2c1", "note": "[2-[(2,3-dimethyl-4-oxidanylidene-5H-thieno[2,3-b]pyridin-6-yl)sulfanyl]-N-(6-ethoxy-1,3-benzothiazol-2-yl)ethanamide]", "values": [
      {"measurement": "IC50", "value": "> 100", "unit": "µM"}
    ]}
  ]
}
